33 compounds from US20260125357A1, “LACTATE ENHANCING COMPOUNDS AND USES THEREOF” (GLIAPHARM SA, priority 2022, published 2026) can be followed below.

SMILES strings stand for the structures.

The EC50 is the concentration needed to bring the measured effect to its halfway point.

In one assay the test system is primary astrocytes. Put plainly: Extracellular medium acidification (SNARF5) assay in astrocytes. To be noted: Mus musculus, Astrocyte; astrocytes in vitro; compounds 10 nM to 30 μM; read-out: Activity (EC50 class, extracellular medium acidification SNARF5). The assay is classed as cell-based. As for the experimental part: To assess for the effect of the compounds of the invention, those were tested in primary mouse astrocytes and astrocytes differentiated from human-derived induced pluripotent stem cells (iPSCs). Secretion of lactate was measured indirectly through the acidification of extracellular medium using extracellular pH sensor SNARE-5F-(AND-6)-CAR (SNARF5) as described below.
(§1) Primary cultures of cerebrocortical astrocytes were obtained from 1 to 2-day-old OF1 mouse pups (Charles River Laboratories). Briefly, cortices were isolated and minced in small pieces under a dissecting microscope. The cells were incubated for 30 min at 37° C. in a solution containing 20 U/ml papain, 1 mM L-cysteine and 10 kU/ml DNase I. After dissociation, papain activity was stopped by the addition of fetal calf serum (FCS). Single-cell suspension was then obtained by mechanical dissociation, which consisted in cells trituration in a DMEM D7777 medium supplemented with 44 mm NaHCO3, 10 ml/L antibiotic/antimycotic solution and 10% FCS. The cells were seeded at an average density of ˜10′000 cells/cm^2 on poly-D-lysine coated 96- or 12-well culture plates, depending on their use, and grown in DMEM D7777 medium supplemented with 44 mm NaHCO3, 10 ml/L antibiotic/antimycotic solution and 10% FCS at 37° C. in a humidified atmosphere containing 5% CO2/95% air. Culture medium was renewed twice a week. Cells were stimulated and harvested between DIV14 and DIV17, when confluence and cell growth were optimal.
Secretion of lactate was measured indirectly through the acidification of extracellular medium using extracellular pH sensor SNARF-5F-(AND-6)-CAR (SNARF5). After washing cells twice with stimulation medium (DMEM (D5030, Sigma), 1 mM […], and 5 mM Glucose, pH 7.4) at 37° C., cells were stimulated with compounds at a final concentration ranging from 10 nM to 30 μM in 50 μl per well of stimulation medium supplemented with 10 μM of SNARF5 (Life Technologies Corporation). Each compound was tested in two different plates for duplicates. After 30, 60 and 90 min stimulation, fluorescence was read at exc. (excitation) 480 nm/emm. (emission) 580 nm and at exc 480 nm/emm. 630 nm. The ratio of fluorescence between 630 nm and 580 emission values, which is proportional to extracellular pH, was calculated. In each plate, 8 wells were used for negative controls (DMSO 0.1%) and 8 wells were used for positive controls (CCCP 2 μM in DMSO). Results are shown as % of positive control effect (0% and 100% being activities of the Veh and positive control, respectively).
In the case of `CCOc1cc2ccnc(Nc3ccc(S(C)(=O)=O)cc3)c2cc1OCC` [Compound 8, 6,7-diethoxy-N-(4-methylsulfonylphenyl)isoquinolin-1-amine], the EC50 is less than 1000 nM.
For `CC(=O)Nc1ccc2ccnc(Nc3ccc(S(C)(=O)=O)cc3)c2c1` [Compound 14, N-[1-(4-methylsulfonylanilino)-7-isoquinolyl]acetamide], the EC50 was less than 1000 nM.
Same read-out and setting: in the case of `CCOc1cc2ccnc(Nc3ccc(C4COC4)cc3)c2cc1OCC` [Compound 27, 6,7-diethoxy-N-[4-(oxetan-3-yl)phenyl]isoquinolin-1-amine] it was less than 1000 nM.
On the same count and under the same terms, in the case of `CCOc1cc2ccnc(Nc3ccc(S(C)(=O)=O)cc3F)c2cc1OCC` [Compound 31, 6,7-diethoxy-N-(2-fluoro-4-methanesulfonylphenyl)isoquinolin-1-amine] it was less than 1000 nM; in that of `CS(=O)(=O)c1ccc(Nc2nccc3cc(OCCF)c(OCCF)cc23)cc1` [Compound 34, 6,7-bis(2-fluoroethoxy)-N-(4-methanesulfonylphenyl)isoquinolin-1-amine], less than 1000 nM.
Consider `CC(C)Oc1ccc2c(Nc3ccc(S(C)(=O)=O)cc3)nccc2c1` [Compound 11, 6-isopropoxy-N-(4-methylsulfonylphenyl)isoquinolin-1-amine], for which the EC50 is less than 1000 nM.
Still for that read-out and setting: the result for `CCOc1cc2ccnc(Nc3ccc(-c4ccno4)cc3)c2cc1OCC` [Compound 29, 6,7-diethoxy-N-[4-(1,2-oxazol-5-yl)phenyl]isoquinolin-1-amine] reads less than 1000 nM; that for `CCOc1cc2ccnc(Nc3ccc(S(C)(=O)=O)cc3)c2cc1O` [Compound 6, 6-ethoxy-1-(4-methylsulfonylanilino)isoquinolin-7-ol], more than 1000 nM; that for `COc1cc2c(Nc3ccc(S(C)(=O)=O)cc3)nccc2cc1N1CCC1` [Compound 24, 6-(azetidin-1-yl)-7-methoxy-N-(4-methylsulfonylphenyl)isoquinolin-1-amine], less than 1000 nM.
On the same count and under the same terms, the result for `CCOc1cc2ccnc(Nc3ccc(-c4ccon4)cc3)c2cc1OCC` [Compound 28, 6,7-diethoxy-N-[4-(1,2-oxazol-3-yl)phenyl]isoquinolin-1-amine] reads less than 1000 nM.
Turning to `CCCc1cc2c(Nc3ccc(S(C)(=O)=O)cc3)nccc2cc1OCC` [Compound 37, 6-ethoxy-N-(4-methanesulfonylphenyl)-7-propylisoquinolin-1-amine], the EC50 was less than 1000 nM.
On to `COc1cc2c(Nc3ccc(S(C)(=O)=O)cc3)nccc2cc1NCC1CC1` [Compound 23, N6-(cyclopropylmethyl)-7-methoxy-N1-(4-methylsulfonylphenyl)isoquinoline-1,6-diamine], for which the EC50 is less than 1000 nM.
Still for that read-out and setting: the result for `CCc1cc2c(Nc3ccc(S(C)(=O)=O)cc3)nccc2cc1OC` [Compound 17, 7-ethyl-6-methoxy-N-(4-methylsulfonylphenyl)isoquinolin-1-amine] reads less than 1000 nM; that for `CCNc1ccc2ccnc(Nc3ccc(S(C)(=O)=O)cc3)c2c1` [Compound 15, N7-ethyl-N1-(4-methylsulfonylphenyl)isoquinoline-1,7-diamine], more than 1000 nM; that for `CCOc1cc2ccnc(Nc3ccc(S(=O)(=O)C4CC4)cc3)c2cc1OCC` [Compound 32, N-[4-(cyclopropanesulfonyl)phenyl]-6,7-diethoxyisoquinolin-1-amine], less than 1000 nM.
The same measure, in the same setting: in the case of `CS(=O)(=O)c1ccc(Nc2nccc3cc(O)c(O)cc23)cc1` [Compound 5, 1-(4-methylsulfonylanilino)isoquinoline-6,7-diol] it was less than 1000 nM; in that of `CCOc1cc2ccnc(Nc3ccc(S(C)(=O)=O)c(F)c3)c2cc1OCC` [Compound 30, 6,7-diethoxy-N-(3-fluoro-4-methanesulfonylphenyl)isoquinolin-1-amine], less than 1000 nM.
On the same count and under the same terms, the result for `CS(=O)(=O)c1ccc(Nc2nccc3cc(OCc4ccc(F)cc4)ccc23)cc1` [Compound 36, 6-[(4-fluorophenyl)methoxy]-N-(4-methanesulfonylphenyl)isoquinolin-1-amine] reads less than 1000 nM; that for `CS(=O)(=O)c1ccc(Nc2nccc3cc(-c4ncccn4)ccc23)cc1` [Compound 12, N-(4-methylsulfonylphenyl)-6-pyrimidin-2-yl-isoquinolin-1-amine], less than 1000 nM; that for `CS(=O)(=O)c1ccc(Nc2nccc3cc(O)c(Br)cc23)cc1` [Compound 19, 7-bromo-1-(4-methylsulfonylanilino)isoquinolin-6-ol], less than 1000 nM.
Take `C=COc1ccc2c(Nc3ccc(S(C)(=O)=O)cc3)nccc2c1` [Compound 10, N-(4-methylsulfonylphenyl)-6-vinyloxy-isoquinolin-1-amine]: the EC50 is less than 1000 nM.
Still for that read-out and setting: the result for `CS(=O)(=O)c1ccc(Nc2nccc3ccc(O)cc23)cc1` [Compound 13, 1-(4-methylsulfonylanilino)isoquinolin-7-ol] reads more than 1000 nM; that for `COc1cc2ccnc(Nc3ccc(N4CCCC4=O)cc3)c2cc1OC` [Compound 9, 1-[4-[(6,7-dimethoxy-1-isoquinolyl)amino]phenyl]pyrrolidin-2-one], less than 1000 nM; that for `COc1cc2ccnc(Nc3ccc(S(C)(=O)=O)cc3)c2cc1NCC1CC1` [Compound 21, N7-(cyclopropylmethyl)-6-methoxy-N1-(4-methylsulfonylphenyl)isoquinoline-1,7-diamine], less than 1000 nM.
On to `CCc1cc2c(Nc3ccc(S(C)(=O)=O)cc3)nccc2cc1O` [Compound 18, 7-ethyl-1-(4-methylsulfonylanilino)isoquinolin-6-ol], for which the EC50 was less than 1000 nM.
On the same count and under the same terms, the result for `CCOc1cc2ccnc(Nc3ccc(S(C)(=O)=O)cc3)c2cc1OCCF` [Compound 33, 6-ethoxy-7-(2-fluoroethoxy)-N-(4-methanesulfonylphenyl)isoquinolin-1-amine] reads less than 1000 nM.
Same read-out and setting: in the case of `CCOc1cc2ccnc(Nc3ccc(S(=O)(=O)CC)cc3)c2cc1OCC` [Compound 26, N-[4-(ethanesulfonyl)phenyl]-6,7-diethoxyisoquinolin-1-amine] it was less than 1000 nM; in that of `CCc1cc2ccnc(Nc3ccc(S(C)(=O)=O)cc3)c2cc1O` [Compound 25, 6-ethyl-1-[(4-methanesulfonylphenyl)amino]isoquinolin-7-ol], less than 1000 nM; in that of `C=Cc1cc2c(Nc3ccc(S(C)(=O)=O)cc3)nccc2cc1OC` [Compound 16, 6-methoxy-N-(4-methylsulfonylphenyl)-7-vinyl-isoquinolin-1-amine], less than 1000 nM.
The same measure, in the same setting: in the case of `CCCNc1cc2c(Nc3ccc(S(C)(=O)=O)cc3)nccc2cc1OC` [Compound 22, 6-methoxy-N1-(4-methylsulfonylphenyl)-N7-propyl-isoquinoline-1,7-diamine] it was less than 1000 nM; in that of `COc1cc2ccnc(Nc3ccc(S(C)(=O)=O)cc3)c2cc1NCc1ccccc1` [Compound 20, N7-benzyl-6-methoxy-N1-(4-methylsulfonylphenyl)isoquinoline-1,7-diamine], less than 1000 nM; in that of `CC(C)Oc1ccc2c(Cc3ccc(S(C)(=O)=O)cc3)nccc2c1` [Compound 35, 1-[(4-methanesulfonylphenyl)methyl]-6-(propan-2-yloxy)isoquinoline], less than 1000 nM.
For the compound `CCOc1cc2c(Nc3ccc(S(C)(=O)=O)cc3)nccc2cc1O` [Compound 7, 7-ethoxy-1-(4-methylsulfonylanilino)isoquinolin-6-ol], the EC50 is more than 1000 nM.

For a further assay, the system named is primary astrocytes. Put plainly: MTT mitochondrial activity assay in primary astrocytes. The assay is classed as cell-based, mouse. The conditions noted are these: different concentrations, after 1.5 h or 24 h. As for the experimental part: as §1
To monitor mitochondrial activity in astrocytes, which is linked to the metabolic process of glycolysis and production of lactate, astrocytes in 96-well plates were stimulated for 24 h (37° C. 5% CO2/95% air) with the compounds of the invention ranging from 10 nM to 10 μM.
After stimulation, 5 mg/ml thiazol blue tetrazolium bromide (MTT) in D5030 medium complemented with 5 mM D-glucose and 44 mM sodium bicarbonate (pH 7.2) was added to each well, and cells were incubated for 4 h at 37° C. (5% CO2). The medium was then removed and the amount of reduced MTT, i.e formazan, solubilized in DMSO (50 μl/well) was determined using a spectrophotometer (absorbance of 570 nm).
The mitochondrial activity was monitored in MTT colorimetric assay in primary astrocytes treated with Compounds (1), (2), (3), (4) (5), (9) and (10) at different concentrations after 1.5 h (FIG. 2 A, B, D, E, F, C, H, respectively) or 24 h (FIG. 2 H, I, K, L, M, J, N, respectively).
(Tetrazolium assays rely on reduction of a dye to a coloured formazan, in cell work by metabolically active cells.)
Regarding `CS(=O)(=O)c1ccc(Nc2nccc3cc(O)c(O)cc23)cc1` [Compound 5, 1-(4-methylsulfonylanilino)isoquinoline-6,7-diol], the “mitochondrial activity (MTT colorimetric assay)” value (shortened to “mitochondrial activity”) was “none of the selected compounds had direct effect on mitochondrial activity”.
`C=COc1ccc2c(Nc3ccc(S(C)(=O)=O)cc3)nccc2c1` [Compound 10, N-(4-methylsulfonylphenyl)-6-vinyloxy-isoquinolin-1-amine]: the “mitochondrial activity” value is listed as “none of the selected compounds had direct effect on mitochondrial activity”.
`COc1cc2ccnc(Nc3ccc(N4CCCC4=O)cc3)c2cc1OC` [Compound 9, 1-[4-[(6,7-dimethoxy-1-isoquinolyl)amino]phenyl]pyrrolidin-2-one]: the “mitochondrial activity” value is listed as “none of the selected compounds had direct effect on mitochondrial activity”.
